{"source": "patent US4293700A", "about": "“2,6-Dimethyl-1,4-dihydropyridine-3,5-dicarboxylic acid esters and method for preparing same” (priority 1978, dated 1981)", "key": {"Walker carcinosarcoma": {"system": "Walker carcinosarcoma", "assay": "Antimetastatic activity: life duration of rats with Walker carcinosarcoma", "format": "in vivo", "conditions": "for Life duration, % of the control: Walker carcinosarcoma (rats), 10 days; for increase of the life time: rats, after the removal of Walker carcinoma", "method": "(§1) Antimetastatic properties of esters of 2,6-dimethyl-1,4-dihydropyridine-3,5-dicarboxylic acid have been tested on Walker carcinosarcoma, sarcoma 536 and Lewis pneumocarbinoma using mice and rats as test animals. The preparations were administered for 10 days. Two procedures of the administration of these compounds prior to the removal of the primary tumor and introduction of the compound after the removal of the primary tumor. The efficiency of antimetastatic activity of esters of 2,6-dimethyl-1,4-dihydropyridine-3,5-dicarboxylic acid is assessed by the increase of the life duration of the test animals expressed as percentage of the life duration of the animals administered no preparation and serving as the control.\nThus, disodium salt of carboxylatomethyl ester of 2,6-dimethyl-1,4-dihydropyridine-3,5-dicarboxylic acid administered in doses of 50 and 100 mg/kg during the period after the removal of Walker carcinoma increases the life time of the rest rats by 120 and 93% respectively. […] The effect of the compounds is most pronounced in tests with Walker carbinosarcoma on rats; a high efficiency is also noticed for sarcoma 536 with rats; less pronounced is the effect on Lewis lungs carcinoma with mice. The use of esters of 2,6-dimethyl-1,4-dihydropyridine-3,5-dicarboxylic acid provides no negative effect on physiological functions and behaviour of the test animals."}, "Solubility": {"assay": "Solubility", "format": "physicochemical"}, "sarcoma 536": {"system": "sarcoma 536", "assay": "Antimetastatic activity: life duration of rats with sarcoma 536", "format": "in vivo", "conditions": "Sarcoma 536 (rats), 10 days", "method": "as §1"}, "Lewis lungs carcinoma": {"system": "Lewis lungs carcinoma", "assay": "Antimetastatic activity: life duration of mice with Lewis lungs carcinoma", "format": "in vivo", "conditions": "after the removal of the primary tumor, 10 days", "method": "as §1"}, "metastases": {"system": "metastases", "conditions": "in words; cited from earlier work"}, "[1]": {"conditions": "cited from earlier work"}, "[2]": {"conditions": "after the removal of the primary tumor, daily dose 50 mg/kg"}, "[3]": {"conditions": "after the removal of the primary tumor, daily dose 150 mg/kg"}, "[4]": {"conditions": "before the removal of the primary tumor, daily dose 100 mg/kg"}}, "note": "Where a name gives a salt, the structure may show the parent alone."}
{"smiles": "CC1=C(C(=O)OC2CC(C)CCC2C(C)C)CC(C(=O)OC2CC(C)CCC2C(C)C)=C(C)N1", "note": "(centres unmarked) [menthyl ester, Menthyl ester of 2,6-dimethyl-1,4-dihydropyridine-3,5-dicarboxylic acid]", "values": [{"measurement": "Life duration, % of the control", "setting": "Walker carcinosarcoma; prior to the removal of the primary tumor, daily dose 150 mg/kg", "value": 116, "unit": "%"}, {"measurement": "Life duration, % of the control", "setting": "Walker carcinosarcoma; prior to the removal of the primary tumor, daily dose 300 mg/kg", "value": 165, "unit": "%"}, {"measurement": "solubility in acetone", "setting": "Solubility; acetone", "value": "highly-soluble"}, {"measurement": "solubility in alcohol", "setting": "Solubility", "value": "highly-soluble"}, {"measurement": "solubility in benzene", "setting": "Solubility; benzene", "value": "highly-soluble"}, {"measurement": "solubility in chloroform", "setting": "Solubility; chloroform", "value": "highly-soluble"}, {"measurement": "solubility in water", "setting": "Solubility", "value": "insoluble in water"}]}
{"smiles": "CC1=C(C(=O)OCC(=O)O)CC(C(=O)OCC(=O)O)=C(C)N1", "note": "[disodium carboxylate-methyl ester, disodium salt of carboxylate-methyl ester of 2,6-dimethyl-1,4-dihydropyridine-3,5-dicarboxylic acid]", "values": [{"measurement": "Life duration, % of the control", "setting": "sarcoma 536; [2]", "value": 129, "unit": "%"}, {"measurement": "Life duration, % of the control", "setting": "sarcoma 536; [3]", "value": 132, "unit": "%"}, {"measurement": "Life duration, % of the control", "setting": "sarcoma 536; [4]", "value": 152, "unit": "%"}, {"measurement": "Life duration, % of the control", "setting": "sarcoma 536; before the removal of the primary tumor, daily dose 150 mg/kg", "value": 138, "unit": "%"}, {"measurement": "Life duration, % of the control", "setting": "Walker carcinosarcoma; [2]", "value": 220, "unit": "%"}, {"measurement": "Life duration, % of the control", "setting": "Walker carcinosarcoma; after the removal of the primary tumor, daily dose 100 mg/kg", "value": 193, "unit": "%"}, {"measurement": "Life duration, % of the control", "setting": "Walker carcinosarcoma; [3]", "value": 112, "unit": "%"}, {"measurement": "Life duration, % of the control", "setting": "Walker carcinosarcoma; before the removal of the primary tumor, daily dose 50 mg/kg", "value": 130, "unit": "%"}, {"measurement": "Life duration, % of the control", "setting": "Walker carcinosarcoma; [4]", "value": 150, "unit": "%"}, {"measurement": "increase of the life time", "setting": "Walker carcinosarcoma; 50 mg/kg", "value": 120, "unit": "%"}, {"measurement": "increase of the life time", "setting": "Walker carcinosarcoma; 100 mg/kg", "value": 93, "unit": "%"}, {"measurement": "solubility in alcohol", "setting": "Solubility", "value": "sparingly soluble in alcohol"}, {"measurement": "solubility in water", "setting": "Solubility", "value": "highly soluble in water"}, {"measurement": "Life duration, % of the control", "setting": "Lewis lungs carcinoma; daily dose 100 mg/kg", "value": 120, "unit": "%"}, {"measurement": "Life duration, % of the control", "setting": "Lewis lungs carcinoma; daily dose 150 mg/kg", "value": 113, "unit": "%"}]}
{"smiles": "CC(CN1CC(=O)NC(=O)C1)N1CC(=O)NC(=O)C1", "note": "(racemic) [JCFR-159, (±) 1,2-bis(3,5-dioxopiperazin-1-yl)propane]", "values": [{"measurement": "antimetastatic activity", "setting": "metastases", "value": "certain antimetastic activity"}, {"measurement": "side effects", "setting": "[1]; in vivo", "value": "causes leucopenia, thrombocytopenia and dyspeptic phenomena"}, {"measurement": "toxicity", "setting": "[1]; in words", "value": "somewhat toxic"}, {"measurement": "LD50", "setting": "[1]; species and route not given", "value": "1,000 mg/kg"}]}
